Test results as given in US20140088124A1, “IMIDAZOLE DERIVATIVES” (priority 2011, published 2014).

Each compound was assayed against T1, human DGAT1 (Homo sapiens, UniProt O75907) (assay: DGAT1 CPM Assay). Conditions: human DGAT1, CPM fluorescence, 1 hour incubation at room temperature.
T1 sequence (O75907 1-488): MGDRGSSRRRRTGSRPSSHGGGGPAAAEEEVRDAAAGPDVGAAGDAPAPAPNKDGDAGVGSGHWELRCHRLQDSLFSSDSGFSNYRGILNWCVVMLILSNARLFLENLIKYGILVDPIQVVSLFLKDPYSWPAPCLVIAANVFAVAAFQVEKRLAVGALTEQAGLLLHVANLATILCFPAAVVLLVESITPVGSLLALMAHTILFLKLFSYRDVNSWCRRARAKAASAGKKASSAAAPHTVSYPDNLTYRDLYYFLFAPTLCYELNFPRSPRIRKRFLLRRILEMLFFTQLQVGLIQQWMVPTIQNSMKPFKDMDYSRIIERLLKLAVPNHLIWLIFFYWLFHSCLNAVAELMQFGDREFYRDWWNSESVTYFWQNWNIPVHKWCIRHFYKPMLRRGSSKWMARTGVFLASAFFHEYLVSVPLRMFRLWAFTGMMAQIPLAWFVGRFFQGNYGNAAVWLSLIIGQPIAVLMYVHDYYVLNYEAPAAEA
Type: biochemical
Experimental: 20 uL of 90 uM CPM reagent in 90% ethanol was added after 1 hour incubation at room temperature.

Point of comparison: CC1(S(=O)(=O)NC(=O)[C@H]2CC[C@H](OC3CCN(c4ccc(-c5nc6cc(F)ccc6[nH]5)cn4)CC3)CC2)CC1 [Example 80, trans-4-({1-[5-(5-fluoro-1H-benzimidazol-2-yl)pyridin-2-yl]piperidin-4-yl}oxy)-N-[(1-methylcyclopropyl)sulfonyl]cyclohexanecarboxamide], IC50 23 nM. Against it:
- O=C(O)c1cc(OC2CCN(c3ccc(-c4nc5cc(Cl)ccc5[nH]4)cn3)CC2)no1 [Example 130] — 1.5-fold lower, 15 nM
- CS(=O)(=O)NC(=O)[C@H]1CC[C@H](OC2CCN(c3ccc(-c4nc5cc(F)ccc5[nH]4)cn3)CC2)CC1 [Example 86] — within 1.5-fold, 19 nM
- O=C1CN([C@H]2CC[C@H](OC3CCN(c4ccc(-c5nc6cc(F)c(F)cc6[nH]5)cn4)CC3)CC2)S(=O)(=O)N1 [Example 119] — 5.8-fold lower, 4 nM
- O=C(O)C[C@H]1CC[C@H](OC2CCN(c3ccc(-c4nc5cc(C(F)(F)F)cnc5[nH]4)cn3)CC2)CC1 [Example 17] — within 1.5-fold, 24 nM
- O=C(O)CC1CC(OC2CCN(c3ccc(-c4nc5cc(F)ccc5[nH]4)cn3)CC2)C1 (stereo not shown) [Example 53] — 2.4-fold higher, 56 nM
- O=C(O)C[C@H]1CC[C@@H](OC2CCN(c3ccc(-c4nc5cc(F)ccc5[nH]4)cn3)C2)CC1 (single isomer, unassigned) [Example 140] — 3.9-fold higher, 89 nM
- O=C(O)C1(C(=O)O)CC(OC2CCN(c3ccc(-c4nc5cc(C(F)(F)F)ccc5[nH]4)cn3)CC2)C1 [Example 95] — 3.7-fold higher, 85 nM
- O=C(O)c1cncc(OC2CCN(c3ccc(-c4nc5cc(Cl)ccc5[nH]4)cn3)CC2)c1 [Example 128] — 14-fold higher, 324 nM
- C[C@]1(C(=O)O)CC[C@@H](OC2CCN(c3ccc(-c4nc5ncc(C(F)(F)F)cc5[nH]4)cn3)CC2)CC1 [Example 107] — 2.1-fold higher, 48 nM
- O=C(O)C1(COC2CCN(c3ccc(-c4nc5ccc(F)cc5[nH]4)cn3)CC2)CCC1 [Example 39] — 1.5-fold lower, 15 nM
- O=C(O)c1cncc(OC2CCN(c3ccc(-c4nc5cc(C(F)(F)F)ccc5[nH]4)cn3)CC2)c1 [Example 115, 5-[(1-{5-[5-(trifluoromethyl)-1H-benzimidazol-2-yl]pyridin-2-yl}piperidin-4-yl)oxy]pyridine-3-carboxylic acid] — within 1.5-fold, 28 nM
- O=C(O)[C@H]1[C@@H]2C[C@@H](OC3CCN(c4ccc(-c5nc6cc(C(F)(F)F)ccc6[nH]5)cn4)CC3)C[C@@H]21 [Example 134] — 5.8-fold lower, 4 nM
- CCOC(=O)[C@H]1CC[C@H](OC2CCN(c3ccc(-c4nc5cc(Cl)ccc5[nH]4)cn3)CC2)CC1 [Example 72] — 1.5-fold higher, 35 nM
- CC(C)(COC1CCN(c2ccc(-c3nc4cc(Cl)ccc4[nH]3)cn2)CC1)C(=O)O [Example 47] — 4.6-fold lower, 5 nM
- CCCCc1ccc2nc(-c3ccc(N4CCC(O[C@H]5CC[C@@H](CC(=O)O)CC5)CC4)nc3)[nH]c2c1 [Example 24, [cis-4-({1-[5-(6-butyl-1H-benzimidazol-2-yl)pyridin-2-yl]piperidin-4-yl}oxy)cyclohexyl]acetic acid] — 5.8-fold lower, 4 nM
- O=C(O)C[C@H]1CC[C@H](OC2CCN(c3ccc(-c4nc5cc(F)c(F)cc5[nH]4)cn3)CC2)CC1 [Example 16, [trans-4-({1-[5-(5,6-difluoro-1H-benzimidazol-2-yl)pyridin-2-yl]piperidin-4-yl}oxy)cyclohexyl]acetic acid] — 5.8-fold lower, 4 nM
- COc1ccc2[nH]c(-c3ccc(N4CCC(OCC(C)(C)C(=O)O)CC4)nc3)nc2n1 [Example 48] — 2.6-fold higher, 60 nM
- COc1ccc2nc(-c3ccc(N4CCC(OCC5(C(=O)O)CCC5)CC4)nc3)[nH]c2n1 [Example 44] — 3.9-fold higher, 89 nM
- CCOc1ccc2nc(-c3ccc(N4CCC(O[C@H]5CC[C@@H](CC(=O)O)CC5)CC4)nc3)[nH]c2n1 [Example 9] — within 1.5-fold, 20 nM
- O=C(O)c1cccc(OC2CCN(c3ccc(-c4nc5cc(Cl)ccc5[nH]4)cn3)CC2)c1 [Example 132] — 12-fold lower, 2 nM
- O=C1CN([C@H]2CC[C@@H](OC3CCN(c4ccc(-c5nc6cc(F)c(F)cc6[nH]5)cn4)CC3)CC2)S(=O)(=O)N1 [Example 122] — 2.3-fold lower, 10 nM
- O=C(O)C[C@H]1CC[C@@H](O[C@H]2C[C@H]3C[C@@H]2CN3c2ccc(-c3nc4cc(F)ccc4[nH]3)cn2)CC1 (single isomer, unassigned; enantiomer 1) [Example 28, [cis-4-({2-[5-(5-fluoro-1-benzimidazol-2-yl)pyridin-2-yl]-2-azabicyclo[2.2.1]hept-5-yl}oxy)cyclohexyl]acetic acid enantiomer 1] — the same, 23 nM
- O=C(NS(=O)(=O)c1ccccc1)[C@H]1CC[C@H](OC2CCN(c3ccc(-c4nc5cc(F)ccc5[nH]4)cn3)CC2)CC1 [Example 87] — 1.6-fold lower, 14 nM
- COC(=O)c1cccc(COC2CCN(c3ccc(-c4nc5cc(C(F)(F)F)ccc5[nH]4)cn3)CC2)c1 [Example 116] — 4.3-fold higher, 99 nM
- CCOC(=O)[C@H]1CC[C@@H](OC2CCN(c3ccc(-c4nc5cc(F)ccc5[nH]4)cn3)CC2)CC1 [Example 77] — within 1.5-fold, 17 nM
- O=C(O)C[C@H]1CC[C@H](O[C@H]2CCN(c3ccc(-c4nc5cc(F)ccc5[nH]4)cn3)C2)CC1 [Example 138] — 2-fold higher, 45 nM
- N#Cc1ccc2[nH]c(-c3ccc(N4CCC(OC5CC(C(=O)O)(C(=O)O)C5)CC4)nc3)nc2c1 [Example 96] — 12-fold higher, 277 nM
- Cc1cc(N2CCC(O[C@H]3CC[C@H](CC(=O)O)CC3)CC2)ncc1-c1nc2ccccc2[nH]1 [Example 12] — 15-fold higher, 349 nM
- O=C(O)C1(COC2CCN(c3ccc(-c4nc5ccccc5[nH]4)cn3)CC2)CC1 [Example 41] — 52-fold higher, 1200 nM
- O=C(O)C[C@H]1CC[C@H](OC2CCN(c3ccc(-c4nc5ccc(F)cc5[nH]4)cn3)CC2)CC1 [Example 1, [trans-4-({1-[5-(6-fluoro-1H-benzimidazol-2-yl)pyridin-2-yl]piperidin-4-yl}oxy)cyclohexyl]acetic acid] — 3.8-fold lower, 6 nM
- O=C(O)CC1CC(OC2CCN(c3ccc(-c4nc5cc(F)ccc5[nH]4)cn3)CC2)C1 (stereo not shown) [Example 54] — 2.2-fold higher, 51 nM
- O=C(NS(=O)(=O)C(F)(F)F)[C@H]1CC[C@H](OC2CCN(c3ccc(-c4nc5cc(F)ccc5[nH]4)cn3)CC2)CC1 [Example 91] — 3.3-fold lower, 7 nM
- O=C(O)C[C@H]1CC[C@@H](OC2CCN(c3ccc(-c4nc5cc(Cl)ccc5[nH]4)cn3)CC2)CC1 [Example 26] — 7.7-fold lower, 3 nM
- Cc1ccc2[nH]c(-c3ccc(N4CCC(OC5CC(C(=O)O)(C(=O)O)C5)CC4)nc3)nc2n1 [Example 97] — 43-fold higher, 1000 nM
- N#Cc1ccc2[nH]c(-c3ccc(N4CCC(O[C@H]5CC[C@H](CC(=O)O)CC5)CC4)nc3)nc2c1 [Example 18] — within 1.5-fold, 26 nM
- O=C(O)[C@H]1CC[C@H](OC2CCN(c3ccc(-c4nc5cc(C(F)(F)F)ccc5[nH]4)cn3)CC2)CC1 [Example 69, trans-4-[(1-{5-[5-(trifluoromethyl)-1H-benzimidazol-2-yl]pyridin-2-yl}piperidin-4-yl)oxy]cyclohexanecarboxylic acid] — 12-fold lower, 2 nM
- CC(C)(COC1CCN(c2ccc(-c3nc4cc(C(F)(F)F)cnc4[nH]3)cn2)CC1)C(=O)O [Example 61] — 2-fold higher, 46 nM
- O=C(O)[C@H]1C[C@H](OC2CCN(c3ccc(-c4nc5ccc(C(F)(F)F)cc5[nH]4)cn3)CC2)C1 [Example 33, trans-3-[(1-{5-[6-(trifluoromethyl)-1H-benzimidazol-2-yl]pyridin-2-yl}piperidin-4-yl)oxy]cyclobutanecarboxylic acid] — 3.3-fold lower, 7 nM
- O=C(O)C1(COC2CCN(c3ccc(-c4nc5ccc(C(F)(F)F)cc5[nH]4)cn3)CC2)CCOCC1 [Example 45] — 3.3-fold lower, 7 nM
- O=C(O)[C@H]1CC[C@@H](OC2CCN(c3ccc(-c4nc5cc(C(F)(F)F)ccc5[nH]4)cn3)CC2)CC1 [Example 68, cis-4-[(1-{5-[5-(trifluoromethyl)-1H-benzimidazol-2-yl]pyridin-2-yl}piperidin-4-yl)oxy]cyclohexanecarboxylic acid] — 12-fold lower, 2 nM
- O=C(O)[C@H]1CC[C@H](OC2CCN(c3ccc(-c4nc5cc(F)ccc5[nH]4)cn3)CC2)CC1 [Example 74] — 1.5-fold lower, 15 nM
- C[C@]1(C(=O)O)CC[C@@H](OC2CCN(c3ccc(-c4nc5cc(Cl)c(Cl)cc5[nH]4)cn3)CC2)CC1 [Example 109] — 12-fold lower, 2 nM
- Cc1nc(N2CCC(O[C@H]3CC[C@@H](CC(=O)O)CC3)CC2)ccc1-c1nc2ccccc2[nH]1 [Example 11] — 290-fold higher, 6600 nM
- C[C@]1(C(=O)O)C[C@@H](OC2CCN(c3ccc(-c4nc5cc(C(F)(F)F)ccc5[nH]4)cn3)CC2)C1 [Example 104] — 3.8-fold lower, 6 nM
- O=C(O)c1ccc(OC2CCN(c3ccc(-c4nc5cc(Cl)ccc5[nH]4)cn3)CC2)cc1 [Example 131] — 12-fold lower, 2 nM
- O=C(O)C1(COC2CCN(c3ccc(-c4nc5ccccc5[nH]4)cn3)CC2)CCC1 [Example 42] — 2.2-fold higher, 50 nM
- CCOC(=O)[C@H]1CC[C@H](OC2CCN(c3ccc(-c4nc5cc(F)ccc5[nH]4)cn3)CC2)CC1 [Example 73] — 3.1-fold higher, 71 nM
- O=C(O)CC1C[C@@H]2CC(OC3CCN(c4ccc(-c5nc6ccc(C(F)(F)F)cc6[nH]5)cn4)CC3)C[C@@H]2C1 (stereo partly shown) [Example 57] — 12-fold lower, 2 nM
- CCOc1ccc2nc(-c3ccc(N4CCC(O[C@H]5CC[C@H](CC(=O)O)CC5)CC4)nc3)[nH]c2n1 [Example 4, [trans-4-({1-[5-(5-ethoxy-3H-imidazo[4,5-b]pyridin-2-yl)pyridin-2-yl]piperidin-4-yl}oxy)cyclohexyl]acetic acid] — within 1.5-fold, 27 nM
- O=C(O)[C@H]1CC[C@H](OC2CCN(c3ccc(-c4nc5cc(Cl)ccc5[nH]4)cn3)CC2)CC1 [Example 71] — 7.7-fold lower, 3 nM
- O=C1CN([C@H]2CC[C@@H](OC3CCN(c4ccc(-c5nc6ccccc6[nH]5)cn4)CC3)CC2)S(=O)(=O)N1 [Example 121] — 2-fold higher, 45 nM
